We go through three molecules from patent US20090028832A1, “Compositions and methods for targeted tumor therapy” (priority 2006, published 2009).

Holding throughout (type): cell-based
One assay has as its system C4-2 cells. Briefly: Chemotherapeutic sensitivity, cell growth by MTT assay, C4-2 cells. As to conditions: Homo sapiens, invasive LNCaP lineage C4-2 cells, in vitro growth. The procedure: (§1) Cells (5×10^3 per well) were cultured in 96-well plates for 24 hr and then replaced with fresh cultured medium to which were added Paclitaxel, Etoposide, or Doxorubicin (Sigma, St. Louis, Mo.) at 4 different concentrations, followed by incubation for 96 hrs. Cell growth was measured using the MTT assay.
Background: Formazan colour is commonly taken as a measure of viable cells.

The next assay deals with ARCaPE cells. In words: Chemotherapeutic sensitivity, cell growth by MTT assay, ARCaPE cells. As to conditions: Homo sapiens, in vitro growth, 96 hrs incubation. The procedure:
as §1

The next assay relates to ARCaPM cells. Briefly: Chemotherapeutic sensitivity, cell growth by MTT assay, ARCaPM cells. As to conditions: Homo sapiens, in vitro growth, 96 hrs incubation. The method, then: as §1

Regarding `COc1cccc2c1C(=O)c1c(O)c3c(c(O)c1C2=O)C[C@@](O)(C(=O)CO)C[C@@H]3O[C@H]1C[C@H](N)[C@H](O)[C@H](C)O1` [doxorubicin], the IC50 is 2.7 µM in the assay on C4-2 cells, 3.4 µM with ARCaPE cells and 5.5 µM in the assay on ARCaPM cells.

As for `COc1cc([C@@H]2c3cc4c(cc3[C@@H](O[C@@H]3O[C@@H]5CO[C@@H](C)O[C@H]5[C@H](O)[C@H]3O)[C@H]3COC(=O)[C@H]23)OCO4)cc(OC)c1O` [etoposide], the IC50 was 5.6 µM in the assay with C4-2 cells, 8.1 µM in the assay on ARCaPE cells and 5.8 µM in the assay on ARCaPM cells.

As for `CC(=O)O[C@H]1C(=O)[C@@]2(C)[C@H]([C@H](OC(=O)c3ccccc3)[C@]3(O)C[C@H](OC(=O)[C@H](O)[C@@H](NC(=O)c4ccccc4)c4ccccc4)C(C)=C1C3(C)C)[C@]1(OC(C)=O)CO[C@@H]1C[C@@H]2O` [paclitaxel], the results for the IC50 in the assay with C4-2 cells, with ARCaPE cells and with ARCaPM cells were 0.0235 µM, 0.053 µM and 0.039 µM, respectively.

For orientation: IC50 means the concentration that inhibits the measured activity by half.
